Measurements as given in patent EP0303243A2, “Use of atrial natriuretic factor (ANF), fragments and analogues thereof, for the treatment of cardiac disorders” (HOECHST AKTIENGESELLSCHAFT, priority 1987, dated 1989).
Non-standard residues stand in square brackets, D forms with d. Residues, ends and D or L forms follow the SMILES beside them.

System: isolierten arbeitenden Rattenherzen
Assay: Isolated working rat heart (Langendorff) with coronary occlusion (ischaemia) and reperfusion
Parameters: species or system Ratten
Conditions: 10^-7 mol/l; for Myokardiale Gewebsspiegel von ATP / Myokardiale Gewebsspiegel von Glykogen / Myokardiale Gewebsspiegel von KP / Myokardiale Gewebsspiegel von Laktat: ischaemic hearts perfused for 65 Minuten; for KK / LDH / Laktat: coronary venous effluent
Source text: Die erfindungsgemäßen Verbindungen verbessern arrhythmische Zustände, die Hämodynamik und den Stoffwechsel des Herzens. Ihre Wirkung wurde an Ratten im Test nach Langendorff geprüft (0. Langendorff "Untersuchungen am überlebenden Säugetierherzen", Pflügers Archiv […], Bd. 61, 291 - 332; H. Bardenheuer, J. Schrader "Relationships between myocardial oxygen consumption, coronary flow and adenosin release in an improved isolated working heart preparation of guinea pigs", Circulation Research, 1983, Bd. 51, 263 - 271
Die Koronargefäße der isolierten arbeitenden Rattenherzen wurden retrograd über die Aorta mit Krebs-Henseleit-Lösung perfundiert. In den linken Ventrikel wurde ein Ballon verbracht, der mit einem künstlichen "systemischen" Kreislauf verbunden war. Die Druck-Volumenarbeit wurde erreicht, indem aus dem Ballon in den systemischen Kreislauf Kochsalzlösung gepumpt wurde. Die Herzen wurden mit einem Druck von 65 mmHg perfundiert, die Nachlast betrug ebenfalls 65 mmHg und die Vorlast 7,4 mmHg. In einer Kontrollperfusionsperiode wurden die Herzen über 20 Minuten perfundiert. Danach wurde die linke Koronararterie in der Nähe ihres Austritts aus der Aorta mit einem Clip verschlossen. Nach 15 Minuten (ischämische Periode) wurde der Verschluß geöffnet und es schloß sich eine 30 minütige Reperfusionsphase an. Während dieses experimentellen Zeitverlaufs untersuchten wir die Effekte des ANF auf kardiodynamische Parameter, wie linker Ventrikeldruck (LVD), dp/dt max, Herzfrequenz (HF), Koronarfluß (KorF), myokardialer Sauerstoffverbrauch (MSV), auf Enzyme im koronarvenösen Effluat wie Laktat dehydrogenase (LDH) und Kreatinkinase (KK) sowie Laktat, auf metabolische Parameter im Myokard wie Laktat, Glykogen, Adenosintriphosphat (ATP) und Kreatinphosphat (KP) und auf Reperfusionsarrhythmien mittels EKG.
Eine Substanz wird dann als wirksam bezeichnet, wenn nach dem Abklemmen der linken Herzkoronararterie und anschließender Reperfusion keine Arrhythmien - im Vergleich zur unbehandelten Kontrolle - entstehen, wobei das Kammerflimmern (KF) einen meßbaren Parameter darstellt.
Die erfindungsgemäßen Verbindungen wurden in den entsprechenden Konzentrationen vor und nach Okklusion der linken Koronararterie perfundiert (n:10); (n:4). Kontrollherzen wurden mit Krebs-Henseleit-Lösung perfundiert (n:10).

Compound	Myokardiale Gewebsspiegel von ATP	Myokardiale Gewebsspiegel von Glykogen	Myokardiale Gewebsspiegel von KP	Myokardiale Gewebsspiegel von Laktat	HF (Ischämische Periode)	KorF (Ischämische Periode)	LVD (Ischämische Periode)	LVdp/dtmax (Ischämische Periode)	HF (Kontrollperfusionsperiode)	KorF (Kontrollperfusionsperiode)	LVD (Kontrollperfusionsperiode)	LVdp/dtmax (Kontrollperfusionsperiode)	HF (Reperfusionsperiode)	KorF (Reperfusionsperiode)	LVD (Reperfusionsperiode)	LVdp/dtmax (Reperfusionsperiode)	KK (Ischämische Periode)	LDH (Ischämische Periode)	Laktat (Ischämische Periode)	KK (Kontrollperfusionsperiode)	other results
human ANF-(103-126) [h-ANF(103-126)]	* 11,01 ± 0,59 µmol/g Trockengewicht	* 113,15 ± 3,74 µmol/g Trockengewicht	* 13,89 ± 0,99 µmol/g Trockengewicht	* 4,03 ± 0,62 µmol/g Trockengewicht	301 ± 5 Schläge/Min	* 9,0 ± 0,2 ml/Min/g	* 45 ± 3 mmHg	* 1663 ± 117 mmHg • sec^-1	298 ± 4 Schläge/Min	11,1 ± 0,2 ml/Min/g	* 55 ± 2 mmHg	* 2125 ± 91 mmHg • sec^-1	280 ± 4 Schläge/Min	* 11,7 ± 0,3 ml/Min/g	* 37 ± 2 mmHg	* 1385 ± 91 mmHg • sec^-1	* 30 ± 2 mU/min/g	* 20 ± 2 mU/min/g	* 0,18 ± 0,01 µmol/min/g	28 ± 3 mU/min/g	MSV (Ischämische Periode): * 11,5 ± 0,3 ml/min/100 g; MSV (Kontrollperfusionsperiode): * 14,5 ± 0,3 ml/min/100 g; MSV (Reperfusionsperiode): 14,7 ± 0,4 ml/min/100 g; LDH (Kontrollperfusionsperiode): 21 ± 2 mU/min/g; Laktat (Kontrollperfusionsperiode): * 0,13 ± 0,01 µmol/min/g; KK (Reperfusionsperiode): * 18 ± 2 mU/min/g; LDH (Reperfusionsperiode): * 12 ± 1 mU/min/g; Laktat (Reperfusionsperiode): * 0,12 ± 0,04 µmol/min/g; KF (ventricular fibrillation (Kammerflimmern), Reperfusionsperiode): * 2,7 ± 0,9 Min
CC[C@H](C)[C@@H]1NC(=O)[C@H](CCCNC(=N)N)NC(=O)[C@@H](CC(C)C)NC(=O)[C@H]([C@@H](C)CC)NC(=O)[C@@H](CCCNC(=N)N)NC1=O [cyclo-(D-Arg-Ile-D-Leu-Arg-Ile)] (cyclo(I[dL]RI[dR]))	* 13,25 ± 0,41 µmol/g Trockengewicht	* 121,09 ± 2,97 µmol/g Trockengewicht	* 15,22 ± 0,83 µmol/g Trockengewicht	* 3,87 ± 0,46 µmol/g Trockengewicht	299 ± 7 Schläge/Min	* 8,7 ± 0,4 ml/Min/g	* 49 ± 4 mmHg	* 1784 ± 109 mmHg • sec^-1	306 ± 7 Schläge/Min	12,3 ± 0,8 ml/Min/g	68 ± 3 mmHg	2589 ± 101 mmHg • sec^-1	284 ± 10 Schläge/Min	* 12,9 ± 0,9 ml/Min/g	48 ± 6 mmHg	1724 ± 111 mmHg • sec^-1	* 32 ± 5 mU/min/g	* 22 ± 4 mU/min/g	* 0,24 ± 0,03 µmol/min/g	32 ± 4 mU/min/g	LDH (Kontrollperfusionsperiode): 29 ± 5 mU/min/g; Laktat (Kontrollperfusionsperiode): * 0,18 ± 0,04 µmol/min/g; KK (Reperfusionsperiode): * 20 ± 4 mU/min/g; LDH (Reperfusionsperiode): * 14 ± 3 mU/min/g; Laktat (Reperfusionsperiode): * 0,16 ± 0,05 µmol/min/g
